{
  "source": "paper PMC11012124",
  "about": "“Synthesis of Novel Triazine-Based Chalcones and 8,9-dihydro-7H-pyrimido[4,5-b][1,4]diazepines as Potential Leads in the Search of Anticancer, Antibacterial and Antifungal Agents” (International Journal of Molecular Sciences, 2024)",
  "test_in_all_cases": "cells",
  "key": {"SK-MEL-28": {"tested_on": "SK-MEL-28", "settings": "Homo sapiens, SK-MEL-28, 48 h"}, "HOP-62": {"tested_on": "HOP-62", "settings": "Homo sapiens, HOP-62, 48 h"}, "MALME-3M": {"tested_on": "MALME-3M", "settings": "Homo sapiens, 48 h"}, "UACC-257": {"tested_on": "UACC-257", "settings": "Homo sapiens, UACC-257, 48 h"}, "HS 578T": {"tested_on": "HS 578T", "settings": "Homo sapiens, 48 h"}, "MDA-MB-468": {"tested_on": "MDA-MB-468", "settings": "Homo sapiens, MDA-MB-468, 48 h"}, "KM12": {"tested_on": "KM12", "settings": "Homo sapiens, KM12, 48 h"}, "A498": {"tested_on": "A498", "settings": "Homo sapiens, A498, 48 h"}, "HT29": {"tested_on": "HT29", "settings": "Homo sapiens, HT-29, 48 h"}, "RXF 393": {"tested_on": "RXF 393", "settings": "Homo sapiens, RXF 393, 48 h"}, "SF-539": {"tested_on": "SF-539", "settings": "Homo sapiens, SF-539, 48 h"}, "OVCAR-4": {"tested_on": "OVCAR-4", "settings": "Homo sapiens, OVCAR-4, 48 h"}, "SN12C": {"tested_on": "SN12C", "settings": "Homo sapiens, 48 h"}, "TK-10": {"tested_on": "TK-10", "settings": "Homo sapiens, TK-10, 48 h"}, "786-0": {"tested_on": "786-0", "settings": "Homo sapiens, 786-0, 48 h"}, "M14": {"tested_on": "M14", "settings": "Homo sapiens, M14, 48 h"}, "SK-MEL-5": {"tested_on": "SK-MEL-5", "settings": "Homo sapiens, SK-MEL-5, 48 h"}, "SF-268": {"tested_on": "SF-268", "settings": "Homo sapiens, SF-268, 48 h"}, "CAKI-1": {"tested_on": "CAKI-1", "settings": "Homo sapiens, CAKI-1, 48 h"}, "COLO 205": {"tested_on": "COLO 205", "settings": "Homo sapiens, COLO 205, 48 h"}, "NCI-H460": {"tested_on": "NCI-H460", "settings": "Homo sapiens, NCI-H460, 48 h"}, "NCI-H322M": {"tested_on": "NCI-H322M", "settings": "Homo sapiens, 48 h"}, "OVCAR-8": {"tested_on": "OVCAR-8", "settings": "Homo sapiens, OVCAR-8, 48 h"}, "SF-295": {"tested_on": "SF-295", "settings": "Homo sapiens, SF-295, 48 h"}, "CCRF-CEM": {"tested_on": "CCRF-CEM", "settings": "Homo sapiens, 48 h"}, "UACC-62": {"tested_on": "UACC-62", "settings": "Homo sapiens, UACC-62, 48 h"}, "UO-31": {"tested_on": "UO-31", "settings": "Homo sapiens, UO-31, 48 h"}, "SK-OV-3": {"tested_on": "SK-OV-3", "settings": "Homo sapiens, SK-OV-3, 48 h"}, "OVCAR-5": {"tested_on": "OVCAR-5", "settings": "Homo sapiens, OVCAR-5, 48 h"}, "HL-60(TB)": {"tested_on": "HL-60(TB)", "settings": "Homo sapiens, HL-60, 48 h"}, "HCC-2998": {"tested_on": "HCC-2998", "settings": "Homo sapiens, HCC 2998, 48 h"}, "K-562": {"tested_on": "K-562", "settings": "Homo sapiens, K562, 48 h"}, "SNB-75": {"tested_on": "SNB-75", "settings": "Homo sapiens, SNB-75, 48 h"}, "MCF7": {"tested_on": "MCF7", "settings": "Homo sapiens, MCF7, 48 h"}, "EKVX": {"tested_on": "EKVX", "settings": "Homo sapiens, 48 h"}, "HCT-15": {"tested_on": "HCT-15", "settings": "Homo sapiens, HCT-15, 48 h"}},
  "data": [
    {"smiles": "Cc1ccc(C2CC(c3ccc(Nc4nc(NCCO)nc(Nc5ccc(Cl)cc5)n4)cc3)=Nc3c(N)nc(N)nc3N2)cc1", "note": "(centres unmarked) [33b]", "values": [
      {"measurement": "GI50", "setting": "SK-MEL-28", "result": 1770, "unit": "nM"},
      {"measurement": "CC50", "setting": "SK-MEL-28; read-out: LC50", "result": 5650, "unit": "nM"},
      {"measurement": "GI50", "setting": "HOP-62", "result": 1680, "unit": "nM"},
      {"measurement": "CC50", "setting": "HOP-62; read-out: LC50", "result": 6080, "unit": "nM"},
      {"measurement": "GI50", "setting": "MALME-3M", "result": 1700, "unit": "nM"},
      {"measurement": "CC50", "setting": "MALME-3M; read-out: LC50", "result": 6690, "unit": "nM"},
      {"measurement": "GI50", "setting": "UACC-257", "result": 1840, "unit": "nM"},
      {"measurement": "CC50", "setting": "UACC-257; read-out: LC50", "result": 6540, "unit": "nM"},
      {"measurement": "GI50", "setting": "HS 578T", "result": 1790, "unit": "nM"},
      {"measurement": "CC50", "setting": "HS 578T; read-out: LC50", "result": "> 100000", "unit": "nM"},
      {"measurement": "GI50", "setting": "MDA-MB-468", "result": 1650, "unit": "nM"},
      {"measurement": "CC50", "setting": "MDA-MB-468; read-out: LC50", "result": 6090, "unit": "nM"},
      {"measurement": "GI50", "setting": "KM12", "result": 1970, "unit": "nM"},
      {"measurement": "CC50", "setting": "KM12; read-out: LC50", "result": 7540, "unit": "nM"},
      {"measurement": "GI50", "setting": "A498", "result": 3850, "unit": "nM"},
      {"measurement": "CC50", "setting": "A498; read-out: LC50", "result": 42000, "unit": "nM"},
      {"measurement": "GI50", "setting": "HT29", "result": 1780, "unit": "nM"},
      {"measurement": "CC50", "setting": "HT29; read-out: LC50", "result": 7140, "unit": "nM"},
      {"measurement": "GI50", "setting": "RXF 393", "result": 1450, "unit": "nM"},
      {"measurement": "GI50", "setting": "SF-539", "result": 1570, "unit": "nM"},
      {"measurement": "CC50", "setting": "SF-539; read-out: LC50, SF-539, 48 h", "result": 5630, "unit": "nM"},
      {"measurement": "GI50", "setting": "OVCAR-4", "result": 1850, "unit": "nM"},
      {"measurement": "CC50", "setting": "OVCAR-4; read-out: LC50", "result": 7140, "unit": "nM"},
      {"measurement": "GI50", "setting": "SN12C", "result": 1790, "unit": "nM"},
      {"measurement": "CC50", "setting": "SN12C; read-out: LC50", "result": 6390, "unit": "nM"},
      {"measurement": "GI50", "setting": "TK-10", "result": 1900, "unit": "nM"},
      {"measurement": "CC50", "setting": "TK-10; read-out: LC50", "result": 6020, "unit": "nM"},
      {"measurement": "GI50", "setting": "786-0", "result": 1640, "unit": "nM"},
      {"measurement": "CC50", "setting": "786-0; read-out: LC50", "result": 5700, "unit": "nM"},
      {"measurement": "GI50", "setting": "M14", "result": 1840, "unit": "nM"},
      {"measurement": "CC50", "setting": "M14; read-out: LC50", "result": 5990, "unit": "nM"},
      {"measurement": "GI50", "setting": "SK-MEL-5", "result": 1560, "unit": "nM"},
      {"measurement": "CC50", "setting": "SK-MEL-5; read-out: LC50", "result": 5430, "unit": "nM"},
      {"measurement": "GI50", "setting": "SF-268", "result": 1810, "unit": "nM"},
      {"measurement": "CC50", "setting": "SF-268; read-out: LC50", "result": 7350, "unit": "nM"},
      {"measurement": "GI50", "setting": "CAKI-1", "result": 1640, "unit": "nM"},
      {"measurement": "CC50", "setting": "CAKI-1; read-out: LC50", "result": 5730, "unit": "nM"},
      {"measurement": "GI50", "setting": "COLO 205", "result": 1670, "unit": "nM"},
      {"measurement": "CC50", "setting": "COLO 205; read-out: LC50", "result": 6090, "unit": "nM"},
      {"measurement": "GI50", "setting": "NCI-H460", "result": 1800, "unit": "nM"},
      {"measurement": "CC50", "setting": "NCI-H460; read-out: LC50", "result": 6410, "unit": "nM"},
      {"measurement": "GI50", "setting": "NCI-H322M", "result": 1590, "unit": "nM"},
      {"measurement": "CC50", "setting": "NCI-H322M; read-out: LC50", "result": 5420, "unit": "nM"},
      {"measurement": "GI50", "setting": "OVCAR-8", "result": 1800, "unit": "nM"},
      {"measurement": "CC50", "setting": "OVCAR-8; read-out: LC50", "result": 7550, "unit": "nM"},
      {"measurement": "GI50", "setting": "SF-295", "result": 1630, "unit": "nM"},
      {"measurement": "CC50", "setting": "SF-295; read-out: LC50", "result": 5630, "unit": "nM"},
      {"measurement": "GI50", "setting": "CCRF-CEM", "result": 1670, "unit": "nM"},
      {"measurement": "CC50", "setting": "CCRF-CEM; read-out: LC50", "result": "> 100000", "unit": "nM"},
      {"measurement": "GI50", "setting": "UACC-62", "result": 1820, "unit": "nM"},
      {"measurement": "CC50", "setting": "UACC-62; read-out: LC50", "result": 6330, "unit": "nM"},
      {"measurement": "GI50", "setting": "UO-31", "result": 1640, "unit": "nM"},
      {"measurement": "CC50", "setting": "UO-31; read-out: LC50", "result": 5510, "unit": "nM"},
      {"measurement": "GI50", "setting": "SK-OV-3", "result": 2690, "unit": "nM"},
      {"measurement": "CC50", "setting": "SK-OV-3; read-out: LC50", "result": 25600, "unit": "nM"},
      {"measurement": "GI50", "setting": "OVCAR-5", "result": 1620, "unit": "nM"},
      {"measurement": "CC50", "setting": "OVCAR-5; read-out: LC50", "result": 5590, "unit": "nM"},
      {"measurement": "GI50", "setting": "HL-60(TB)", "result": 1710, "unit": "nM"},
      {"measurement": "CC50", "setting": "HL-60(TB); read-out: LC50", "result": "> 100000", "unit": "nM"},
      {"measurement": "GI50", "setting": "HCC-2998", "result": 1550, "unit": "nM"},
      {"measurement": "CC50", "setting": "HCC-2998; read-out: LC50", "result": 5560, "unit": "nM"},
      {"measurement": "GI50", "setting": "K-562; K-562, 48 h", "result": 1340, "unit": "nM"},
      {"measurement": "CC50", "setting": "K-562; read-out: LC50", "result": 24900, "unit": "nM"},
      {"measurement": "GI50", "setting": "SNB-75", "result": 1620, "unit": "nM"},
      {"measurement": "CC50", "setting": "SNB-75; read-out: LC50", "result": 6730, "unit": "nM"},
      {"measurement": "GI50", "setting": "MCF7", "result": 1460, "unit": "nM"},
      {"measurement": "CC50", "setting": "MCF7; read-out: LC50", "result": 6220, "unit": "nM"},
      {"measurement": "GI50", "setting": "EKVX", "result": 1550, "unit": "nM"},
      {"measurement": "CC50", "setting": "EKVX; read-out: LC50", "result": 5710, "unit": "nM"},
      {"measurement": "GI50", "setting": "HCT-15", "result": 1480, "unit": "nM"},
      {"measurement": "CC50", "setting": "HCT-15; read-out: LC50", "result": 5870, "unit": "nM"}
    ]}
  ]
}
